In ChEMBL document CHEMBL2010666, “A resveratrol analog, phoyunbene B, induces G2/M cell cycle arrest and apoptosis in HepG2 liver cancer cells” (Bioorg Med Chem Lett, 2012):
The source made the active and inactive calls. The rule behind the calls is not given here.

Legend:
HepG2 [1] = experiment: Cytotoxicity against human HepG2 cells after 24 hrs by MTT assay; assay type: functional, cell-based; conditions: HepG2, 24 h
[2] = Cytotoxicity against human FHCC-98 cells after 24 hrs by MTT assay; assay type: functional, cell-based; conditions: FHCC-98, 24 h
[3] = Cytotoxicity against human QSG7701 cells after 24 hrs by MTT assay; assay type: cell-based; conditions: QSG7701, 24 h
HepG2 [4] = experiment: Induction of apoptosis in human HepG2 cells assessed as increase in caspase 3 activation using Ac-DEVD-pNA as substrate at 10 uM after 12 hrs by colorimetry relative to control; assay type: functional
HepG2 [5] = experiment: Induction of apoptosis in human HepG2 cells assessed as Bax activation at 30 uM after 24 hrs by immunostaining; assay type: functional, cell-based
HepG2 [6] = experiment: Upregulation of Cdc-2 in human HepG2 cells at 30 uM after 12 to 32 hrs by Western blotting analysis; assay type: functional, cell-based
HepG2 [7] = experiment: Induction of apoptosis in human HepG2 cells assessed as down-regulation of Bcl-2 at 30 uM by Western blotting analysis; assay type: functional, cell-based; conditions: TDE = time-dependent effect
HepG2 [8] = experiment: Upregulation of Cdc-2 in human HepG2 cells at 30 to 50 uM after 24 hrs by Western blotting analysis; assay type: functional, cell-based
HepG2 [9] = experiment: Cell cycle arrest in human HepG2 cells assessed as accumulation at subG0 phase at 30 uM after 12 hrs by FACS analysis relative to control; assay type: functional
HepG2 [10] = experiment: Induction of apoptosis in human HepG2 cells assessed as chromatin condensation at 30 uM after 24 hrs by immunostaining; assay type: functional, cell-based
HepG2 [11] = experiment: Cell cycle arrest in human HepG2 cells assessed as accumulation at G2/M phase at 30 uM after 32 hrs by FACS analysis (reference value: 16.8 %); assay type: functional
[12] = Induction of apoptosis in human QSG7701 cells assessed as increase in caspase 3 activation using Ac-DEVD-pNA as substrate at 30 uM after 12 hrs by colorimetry relative to control; assay type: cell-based; conditions: qsg7701, 12 h
HepG2 [13] = experiment: Cell cycle arrest in human HepG2 cells assessed as accumulation at subG0 phase at 30 uM after 24 hrs by FACS analysis relative to control; assay type: functional
HepG2 [14] = experiment: Induction of apoptosis in human HepG2 cells assessed as PARP cleavage at 30 uM by Western blotting analysis; assay type: functional, cell-based; conditions: TDE = time-dependent effect
FHCC-98 [15] = experiment: Inhibition of human FHCC-98 cell adhesion to matrigel-coated plates at 50 uM after 30 to 60 mins by crystal violet staining-based spectrophotometry; assay type: functional
HepG2 [16] = experiment: Cell cycle arrest in human HepG2 cells assessed as accumulation at G0/G1 phase at 30 uM after 32 hrs by FACS analysis (reference value: 53.7 %); assay type: functional
HepG2 [17] = experiment: Cell cycle arrest in human HepG2 cells assessed as accumulation at G0/G1 phase at 30 uM after 24 hrs by FACS analysis (reference value: 53.7 %); assay type: functional
HepG2 [18] = experiment: Induction of apoptosis in human HepG2 cells assessed as nuclear fragmentation at 30 uM after 24 hrs by immunostaining; assay type: functional, cell-based
HepG2 [19] = experiment: Induction of apoptosis in human HepG2 cells assessed as up-regulation of Bax at 30 uM by Western blotting analysis; assay type: functional, cell-based; conditions: TDE = time-dependent effect
HepG2 [20] = experiment: Cell cycle arrest in human HepG2 cells assessed as accumulation at S phase at 30 uM after 24 hrs by FACS analysis (reference value: 29.5 %); assay type: functional
HepG2 [21] = experiment: Cell cycle arrest in human HepG2 cells assessed as accumulation at G2/M phase at 30 uM after 12 hrs by FACS analysis (reference value: 16.8 %); assay type: functional
HepG2 [22] = experiment: Cell cycle arrest in human HepG2 cells assessed as accumulation at S phase at 30 uM after 12 hrs by FACS analysis (reference value: 29.5 %); assay type: functional
HepG2 [23] = experiment: Upregulation of cyclin B1 in human HepG2 cells at 30 to 50 uM after 24 hrs by Western blotting analysis; assay type: functional, cell-based
HepG2 [24] = experiment: Cell cycle arrest in human HepG2 cells assessed as accumulation at G2/M phase at 30 uM after 24 hrs by FACS analysis (reference value: 16.8 %); assay type: functional
HepG2 [25] = experiment: Upregulation of cyclin B1 in human HepG2 cells at 30 uM after 12 to 32 hrs by Western blotting analysis; assay type: functional, cell-based
HepG2 [26] = experiment: Induction of apoptosis in human HepG2 cells assessed as increase in caspase 3 activation using Ac-DEVD-pNA as substrate at 30 uM after 12 hrs by colorimetry relative to control; assay type: functional
HepG2 [27] = experiment: Cell cycle arrest in human HepG2 cells assessed as accumulation at G2/M phase at 30 uM; assay type: functional, cell-based; conditions: TDE = time-dependent effect
HepG2 [28] = experiment: Cell cycle arrest in human HepG2 cells assessed as accumulation at subG0 phase at 30 uM after 32 hrs by FACS analysis relative to control; assay type: functional
HepG2 [29] = experiment: Cell cycle arrest in human HepG2 cells assessed as accumulation at G0/G1 phase at 30 uM after 12 hrs by FACS analysis (reference value: 53.7 %); assay type: functional
HepG2 [30] = experiment: Induction of apoptosis in human HepG2 cells assessed as cell shrinkage at 30 uM after 24 hrs by phase-contrast microscopy; assay type: functional, cell-based
HepG2 [31] = experiment: Cell cycle arrest in human HepG2 cells assessed as accumulation at S phase at 30 uM after 32 hrs by FACS analysis (reference value: 29.5 %); assay type: functional
[32] = Induction of apoptosis in human QSG7701 cells assessed as Bax activation at 30 uM after 24 hrs by immunostaining; assay type: cell-based; conditions: qsg7701, 24 h
FHCC-98 [33] = experiment: Inhibition of human FHCC-98 cell adhesion to matrigel-coated plates at 100 uM after 30 to 60 mins by crystal violet staining-based spectrophotometry; assay type: functional
HepG2 [34] = experiment: Cell cycle arrest in human HepG2 cells assessed as accumulation at G2/M phase at 50 uM after 24 hrs by FACS analysis (reference value: 16.8 %); assay type: functional
HepG2 [35] = experiment: Cell cycle arrest in human HepG2 cells assessed as accumulation at subG0 phase at 50 uM after 24 hrs by FACS analysis relative to control; assay type: functional
HepG2 [36] = experiment: Cell cycle arrest in human HepG2 cells assessed as accumulation at S phase at 50 uM after 24 hrs by FACS analysis (reference value: 29.5 %); assay type: functional
HepG2 [37] = experiment: Cell cycle arrest in human HepG2 cells assessed as accumulation at G0/G1 phase at 50 uM after 24 hrs by FACS analysis (reference value: 53.7 %); assay type: functional

With `Oc1cccc(/C=C/c2cc(O)cc(O)c2)c1` the IC50 (HepG2 [1]) was 95.8 µM, the IC50 [2] was > 100 µM and the IC50 [3] was > 100 µM.

For `CC[C@@]1(O)C(=O)OCc2c1cc1n(c2=O)Cc2cc3ccccc3nc2-1` [CAMPTOTHECIN], the IC50 (HepG2 [1]) was 6.4 µM, the IC50 [2] was 15.2 µM and the “fold change (FC)” value (HepG2 [4]) was 4. The IC50 [3] was 18.3 µM.

For `COc1cc(O)cc(/C=C/c2ccc(OC)c(O)c2OC)c1` [PHOYUNBENE A], the IC50 (HepG2 [1]) was > 100 µM, the IC50 [2] was > 100 µM and the IC50 [3] was > 100 µM.

With `COc1cc(O)cc(/C=C/c2ccc(O)c(OC)c2OC)c1` [PHOYUNBENE B] the Activity (HepG2 [5]) was “Active”, the IC50 (HepG2 [1]) was 37.1 µM and the Activity (HepG2 [6]) was “inactive”. For the same compound, the Activity (HepG2 [7]) was “tde”, the Activity (HepG2 [8]) was “inactive” and the Activity (HepG2 [9]) was 0%. The Activity (HepG2 [10]) was “Active”, the IC50 [2] was 45.8 µM and the Activity (HepG2 [11]) was 75.2%. For the same compound, the Activity [12] was “Non-toxic”, the Activity (HepG2 [13]) was 6.5% and the Activity (HepG2 [14]) was “tde”. For the same compound, the inhibition (FHCC-98 [15]) was “Active”, the Activity (HepG2 [16]) was 4.6% and the Activity (HepG2 [17]) was 17.7%. The Activity (HepG2 [18]) was “Active”, the Activity (HepG2 [19]) was “tde” and the Activity (HepG2 [20]) was 13%. The Activity (HepG2 [21]) was 41.3%, the Activity (HepG2 [22]) was 20.5% and the Activity (HepG2 [23]) was “Active”. For the same compound, the Activity (HepG2 [24]) was 62.8%, the Activity (HepG2 [25]) was “Active” and the “fold change (FC)” value (HepG2 [26]) was 5. The Activity (HepG2 [27]) was “tde”, the Activity (HepG2 [28]) was 12.3% and the Activity (HepG2 [29]) was 38.2%. For the same compound, the Activity (HepG2 [30]) was “Active”, the Activity (HepG2 [31]) was 7.9% and the IC50 [3] was > 100 µM. For the same compound, the Activity [32] was “Non-toxic” and the inhibition (FHCC-98 [33]) was “Active”.

In the case of `COc1cc(O)cc(/C=C/c2cccc(O)c2OC)c1` [PHOYUNBENE C], the IC50 (HepG2 [1]) is reported as 90.8 µM, the IC50 [2] is reported as > 100 µM and the IC50 [3] is reported as > 100 µM.

For `COc1cc(O)cc(/C=C/c2cccc(OC)c2OC)c1` [PHOYUNBENE D], the IC50 (HepG2 [1]) was > 100 µM, the IC50 [2] was 80.5 µM and the IC50 [3] was > 100 µM.

With `COc1c(O)cccc1/C=C/c1cc(O)cc(O)c1` [PHOYUNBENE E] the IC50 (HepG2 [1]) was > 100 µM, the IC50 [2] was > 100 µM and the IC50 [3] was > 100 µM.

For `COc1cc(O)cc(/C=C/c2cccc(O)c2O)c1` [PHOYUNBENE F], the IC50 (HepG2 [1]) was > 100 µM, the IC50 [2] was > 100 µM and the IC50 [3] was > 100 µM.

Work on `Oc1ccc(/C=C/c2cc(O)cc(O)c2)cc1` [RESVERATROL] yielded an IC50 (HepG2 [1]) of 80.3 µM, an Activity (HepG2 [34]) of 11.7% and an IC50 [2] of 95.2 µM. For the same compound, the Activity (HepG2 [35]) was 0%, the Activity (HepG2 [36]) was 56.3% and the inhibition (FHCC-98 [15]) was “Active”. For the same compound, the Activity (HepG2 [37]) was 31.9%, the IC50 [3] was > 100 µM and the inhibition (FHCC-98 [33]) was “Active”.
